In US20100137300A1, “Indolizine Acetic Acid Derivatives as CRTH2 Antagonists” (priority 2007, published 2010) one finds IC50 data, which are given here for two molecules.

For this assay, the target named is T1, CRTH2 receptor (Homo sapiens, UniProt Q9Y5Y4).
T1 construct: expressed in transfected cells; host or cells: Human embryonic kidney (HEK) cells, membranes
T1 sequence (Q9Y5Y4 1-395): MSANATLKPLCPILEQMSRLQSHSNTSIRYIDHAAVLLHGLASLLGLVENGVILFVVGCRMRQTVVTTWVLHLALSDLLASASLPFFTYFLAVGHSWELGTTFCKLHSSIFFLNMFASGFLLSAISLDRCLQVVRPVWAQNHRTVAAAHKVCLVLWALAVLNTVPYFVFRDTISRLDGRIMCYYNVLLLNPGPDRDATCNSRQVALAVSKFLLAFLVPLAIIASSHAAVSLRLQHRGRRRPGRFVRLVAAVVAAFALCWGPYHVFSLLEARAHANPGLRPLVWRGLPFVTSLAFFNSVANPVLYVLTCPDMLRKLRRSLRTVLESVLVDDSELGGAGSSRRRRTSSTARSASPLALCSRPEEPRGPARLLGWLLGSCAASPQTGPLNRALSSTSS
Put plainly: CRTH2 radioligand binding assay ([3H]-PGD2 displacement). As to conditions: HEK cell membranes expressing the CRTH2 receptor, 1 nM [3H]-PGD2. The method, then: The receptor binding assay is performed in a final volume of 200 μL binding buffer [10 mM BES (pH 7.4), 1 mM EDTA, 10 mM manganese chloride, 0.01% BSA] and 1 nM [^3H]-PGD2 (Amersham Biosciences UK Ltd). Ligands are added in assay buffer containing a constant amount of DMSO (1% by volume). Total binding is determined using 1% by volume of DMSO in assay buffer and non-specific binding is determined using 10 μM of unlabeled PGD2 (Sigma). Human embryonic kidney (HEK) cell membranes (3.5 μg) expressing the CRTH2 receptor are incubated with 1.5 mg wheatgerm agglutinin SPA beads and 1 nM [^3H]-PGD2 (Amersham Biosciences UK Ltd) and the mixture incubated for 3 hours at room temperature. Bound [^3H]-PGD2 is detected using a Microbeta TRILUX liquid scintillation counter (Perkin Elmer). Compound IC50 value is determined using a 6-point dose response curve in duplicate with a semi-log compound dilution series. IC50 calculations are performed using Excel and XLfit (Microsoft), and this value is used to determine a Ki value for the test compound using the Cheng-Prusoff equation.

As a reminder, the IC50 is the concentration that gives 50% inhibition. Lower therefore signals greater potency. `Cc1c(Cc2ccc(S(=O)(=O)N3CCOCC3)cc2)c2cc(C#N)ccn2c1CC(=O)O` [Example 1, {7-cyano-2-methyl-1-[4-(morpholine-4-sulfonyl)benzyl]indolizin-3-yl}acetic acid] displayed an IC50 of 58 nM.
Regarding `Cc1c(Cc2ccc3cc(F)ccc3n2)c2cc(C#N)ccn2c1CC(=O)O` [Example 6, [7-cyano-1-(6-fluoroquinolin-2-ylmethyl)-2-methylindolizin-3-yl]acetic acid], the IC50 was found to be 19 nM.
